# US6812010B1, “Method for enzymatic preparation of homogentisate” (Aventis Cropscience SA, priority 1997, dated 2004)
# Legend:
# [1] = test system: HPA-hydroxylase (protein extract from Pseudomonas acidovorans); test: HPA-hydroxylase activity assay with inhibition by an HPPD inhibitor (HPLC detection of HMO); format: biochemical; conditions: 100 μM of HPPD inhibitor; 30° C., 5 min
# Protocol: The cell pellet, which is approximately 0.5 g, is resuspended in 1.5 ml of extraction buffer (0.1 M potassium phosphate pH 7.2, 1 mM DTE and 5 mM MgMgSO4) and sonicated twice at 23 kHz for 2.5 min. The resulting suspension is centrifuged at 44,000×g for 20 min. The harvested supernatant is again centrifuged at 100,000×g for 60 min. The new supernatant is aliquoted in 0.1-ml fractions, these fractions being kept at −80° C. before use. The HPA-hydroxylase activity is measured in a 96-well microtitration plate with 200 μl of reaction per well consisting of 150 μl of 0.1 M sodium phosphate fits pH 7.2, 10 μl of 20 mM DTE, 10 μl of 3 mM NADH, 15 μl of 67 μM FAD, 10 μl of protein (i.e. approximately 7 μg) and 5 μl of 10 mM HPA. When an assay for inhibition by an HPPD inhibitor is carried out, 2 μl of 10 mM 4-[4-trifluoromethyl-2-(methylsulphonyl)benzoyl]-5-cyclopropylisoxazole are added to a phosphate buffer containing 20% of DMSO. The reaction is initiated by adding the substrate, HPA; it takes place at 30° C. for 5 min. with stirring. The reaction is stopped by adding 33 μl of 25% perchloric acid. The plate is then centrifuged at 2000 rpm for 15 min., and the supernatant is analysed by HPLC. 10 μl of the supernatant is injected onto a Spherisorb ODS2 column equilibrated with buffer A (5.5% acetonitrile, 0.1% TFA) at the flow rate of 1.5 ml/min. The detection is carried out at 292 nm. […]
# [2] = test system: HPP-oxidase (protein extract from Arthrobacter globiformis); test: HPP-oxidase activity assay with inhibition by an HPPD inhibitor (HPLC detection of HPA); format: biochemical; conditions: 100 μM of HPPD inhibitor; 30° C., 5 min
# Protocol: The cell pellet, which is approximately 3.4 g, is resuspended in 7 ml of extraction buffer (0.05 M potassium phosphate pH 7.5, 0.1 mM TPP, 0.1 mM MgCl2 and 5 mM mercaptoethanol) and sonicated twice at 23 kHz for 2.5 min. The resulting suspension is centrifuged at 44,000×g for 20 min. The harvested supernatant is again centrifuged at 100,000×g for 60 min. 0.7 ml of 2% protamine sulphate in the extraction buffer is added to the new 7-ml supernatant, followed by gentle stirring. The precipitate which forms is removed by a centrifugation at 20,000×g for 20 min. Ammonium sulphate is gradually added to the supernatant thus obtained so as to reach 60% saturation. This new preparation is stirred for 30 min., and the precipitate formed harvested by centrifugation at 20,000×g for 20 min. The pellet is redissolved in 0.5 ml of extraction buffer and aliquoted in 0.1-ml fractions, these fractions being kept at −80° C. before use.
# The HPP-oxidase activity is measured in a 96-well microtitration plate with 200 μl of reaction per well consisting of […] of 67 mM sodium phosphate pH 7.4, 10 μl of 13.4 mM glutathione, 10 μl of 67 mM MgCl2, 10 μl of 26.7 mM TPP, 10 μl of 67 μM FAD, […] (i.e. approximately 6 μg) and 10 μl of 2.5 mM HPP. […]
# The plate is then centrifuged at 2000 rpm for 15 min., and the supernatant is analysed by HPLC. […]
smiles,measurement,setting,value
"CS(=O)(=O)c1cc(C(F)(F)F)ccc1C(=O)c1cnoc1C1CC1 [HPPD inhibitor, 4-[4-trifluoromethyl-2-(methylsulphonyl)benzoyl]-5-cyclopropylisoxazole]",inhibition of the enzyme transforming HPA into HMO,[1],not inhibited
same,inhibition of the enzyme transforming HPP into HPA,[2],not inhibited
